Source: patent US20230040770A1, “HETEROCYCLIC COMPOUND AND USE THEREOF” (TAKEDA PHARMACEUTICAL COMPANY LIMITED, priority 2019, published 2023)

These compounds were tested against T1, human orexin type 2 receptor (Homo sapiens, UniProt O43614) (assay: Measurement of orexin type 2 receptor agonist activity (calcium indicator fluorescence, CHO cells forcibly expressing human OX2 receptor)). Conditions: compound at 3 μM; 0% = DMSO, 100% = orexin A (human) 10 nM.
T1 construct: expressed in transfected cells
T1 sequence (O43614 1-444): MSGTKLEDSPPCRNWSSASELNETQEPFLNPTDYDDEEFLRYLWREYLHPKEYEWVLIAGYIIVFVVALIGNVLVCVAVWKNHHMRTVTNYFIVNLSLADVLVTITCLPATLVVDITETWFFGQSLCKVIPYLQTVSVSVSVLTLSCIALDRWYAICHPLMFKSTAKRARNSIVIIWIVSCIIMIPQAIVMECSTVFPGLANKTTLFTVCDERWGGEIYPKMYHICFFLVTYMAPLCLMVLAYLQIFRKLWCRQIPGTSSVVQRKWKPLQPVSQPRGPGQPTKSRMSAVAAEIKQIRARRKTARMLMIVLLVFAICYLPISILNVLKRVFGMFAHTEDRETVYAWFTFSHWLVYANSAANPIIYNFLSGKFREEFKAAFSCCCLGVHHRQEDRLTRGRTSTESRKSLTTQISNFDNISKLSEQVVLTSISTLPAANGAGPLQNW
Assay type: cell-based
Summary of the method: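 CHO-dhfr cells stably expressing human OX2R, loaded with Fluo-4 AM (30 min 37 °C, then 30 min RT), then given test compound. Calcium fluorescence read by FDSS over ~2 min. Activity (%) scaled from DMSO (0%) to 10 nM final orexin A (100%).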

First: Cc1cccc(-c2cccc(C[C@H]3[C@@H](NS(=O)(=O)N(C)C)C(F)(F)CN3C(=O)N(C)C)c2F)c1 [Example 442, (2S,3R)-3-[(dimethylsulfamoyl)amino]-4,4-difluoro-2-[(2-fluoro-3′-methyl[1,1′-biphenyl]-3-yl)methyl]-N,N-dimethylpyrrolidine-1-carboxamide]
Second: CCS(=O)(=O)N[C@@H]1[C@H](Cc2cccc(-c3cccc(C)c3)c2F)N(C(=O)C(C)(C)O)CC1(F)F [Example 465, N-[(2S,3R)-4,4-difluoro-2-[(2-fluoro-3′-methyl[1,1′-biphenyl]-3-yl)methyl]-1-(2-hydroxy-2-methylpropanoyl)pyrrolidin-3-yl]ethanesulfonamide]
The “OX2R agonist activity (3 μM, %)” value of the first is lower: 96% for the first, 106% for the second.

Going from `CCS(=O)(=O)N[C@@H]1[C@H](Cc2cccc(-c3cc(C)cc(F)c3)c2F)N(C(=O)N2CCC2)CC1(F)F` [Example 444, N-{(2S,3R)-1-(azetidine-1-carbonyl)-2-[(2,3′-difluoro-5′-methyl[1,1′-biphenyl]-3-yl)methyl]-4,4-difluoropyrrolidin-3-yl}ethanesulfonamide] to `CCS(=O)(=O)N[C@@H]1[C@H](Cc2cccc(-c3cc(C)cc(F)c3)c2F)N(C(=O)N(C)C)CC1(F)F` [Example 447, (2S,3R)-2-[(2,3′-difluoro-5′-methyl[1,1′-biphenyl]-3-yl)methyl]-3-[(ethanesulfonyl)amino]-4,4-difluoro-N,N-dimethylpyrrolidine-1-carboxamide], the “OX2R agonist activity (3 μM, %)” value falls from 98% to 95%.

Going from `CCS(=O)(=O)N[C@@H]1[C@H](Cc2cccc(-c3cccc(F)c3)c2F)N(C(=O)[C@H]2CCCO2)CC1(F)F` [Example 453, N-{(2S,3R)-2-[(2,3′-difluoro[1,1′-biphenyl]-3-yl)methyl]-4,4-difluoro-1-[(2R)-oxolane-2-carbonyl]pyrrolidin-3-yl}ethanesulfonamide] to `CCS(=O)(=O)N[C@@H]1[C@H](Cc2cccc(-c3cccc(C(F)F)c3)c2F)N(C(=O)[C@H]2CCCO2)CC1(F)F` [Example 457, N-{(2S,3R)-2-{[3′-(difluoromethyl)-2-fluoro[1,1′-biphenyl]-3-yl]methyl}-4,4-difluoro-1-[(2R)-oxolane-2-carbonyl]pyrrolidin-3-yl}ethanesulfonamide], the “OX2R agonist activity (3 μM, %)” value falls from 85% to 80%.

Going from `CCS(=O)(=O)N[C@@H]1[C@H](Cc2cccc(-c3cc(F)cc(F)c3)c2F)N(C(=O)[C@H]2CCCO2)CC1(F)F` [Example 454, N-{(2S,3R)-4,4-difluoro-1-[(2R)-oxolane-2-carbonyl]-2-[(2,3′,5′-trifluoro[1,1′-biphenyl]-3-yl)methyl]pyrrolidin-3-yl}ethanesulfonamide] to `CCS(=O)(=O)N[C@@H]1[C@H](Cc2cccc(-c3cc(F)ccc3F)c2F)N(C(=O)[C@H]2CCCO2)CC1(F)F` [Example 456, N-{(2S,3R)-4,4-difluoro-1-[(2R)-oxolane-2-carbonyl]-2-[(2,2′,5′-trifluoro[1,1′-biphenyl]-3-yl)methyl]pyrrolidin-3-yl}ethanesulfonamide], the “OX2R agonist activity (3 μM, %)” value falls from 84% to 77%.

First: CCS(=O)(=O)N[C@@H]1[C@H](Cc2cccc(-c3cccc(F)c3F)c2F)N(C(=O)[C@H]2CCCO2)CC1(F)F [Example 455, N-{(2S,3R)-4,4-difluoro-1-[(2R)-oxolane-2-carbonyl]-2-[(2,2′,3′-trifluoro[1,1′-biphenyl]-3-yl)methyl]pyrrolidin-3-yl}ethanesulfonamide]
Second: CCS(=O)(=O)N[C@@H]1[C@H](Cc2cccc(-c3ccc(F)c(F)c3F)c2F)N(C(=O)C2CCO2)CC1(F)F (stereo partly drawn) [Example 470, N-{(2S,3R)-4,4-difluoro-1-(oxetane-2-carbonyl)-2-[(2,2′,3′,4′-tetrafluoro[1,1′-biphenyl]-3-yl)methyl]pyrrolidin-3-yl}ethanesulfonamide]
The “OX2R agonist activity (3 μM, %)” value of the first is lower: 85% for the first, 103% for the second.

First: CN(C)S(=O)(=O)N[C@H]1[C@@H](F)CN(C(=O)N2CCC2)[C@H]1Cc1cccc(-c2cc(F)cc(F)c2)c1F [Example 458, N′-{(2S,3R,4S)-1-(azetidine-1-carbonyl)-4-fluoro-2-[(2,3′,5′-trifluoro[1,1′-biphenyl]-3-yl)methyl]pyrrolidin-3-yl}-N,N-dimethylsulfuric diamide]
Second: O=C(C1CCO1)N1C[C@H](F)[C@H](NS(=O)(=O)C2CC2)[C@@H]1Cc1cccc(-c2cc(F)cc(F)c2)c1F (stereo partly drawn) [Example 479, N-{(2S,3R,4S)-4-fluoro-1-(oxetane-2-carbonyl)-2-[(2,3′,5′-trifluoro[1,1′-biphenyl]-3-yl)methyl]pyrrolidin-3-yl}cyclopropanesulfonamide]
The “OX2R agonist activity (3 μM, %)” value of the first is lower: 84% for the first, 93% for the second.

Compared with `CCS(=O)(=O)N[C@@H]1[C@H](Cc2cccc(-c3ccc(F)c(C)c3)c2F)N(C(=O)C(C)(C)O)CC1(F)F` [Example 466, N-[(2S,3R)-2-[(2,4′-difluoro-3′-methyl[1,1′-biphenyl]-3-yl)methyl]-4,4-difluoro-1-(2-hydroxy-2-methylpropanoyl)pyrrolidin-3-yl]ethanesulfonamide], `CCS(=O)(=O)N[C@@H]1[C@H](Cc2cccc(-c3ccc(F)c(C)c3)c2F)N(C(=O)C2CCO2)CC1(F)F` (stereo partly drawn) [Example 472, N-[(2S,3R)-2-[(2,4′-difluoro-3′-methyl[1,1′-biphenyl]-3-yl)methyl]-4,4-difluoro-1-(oxetane-2-carbonyl)pyrrolidin-3-yl]ethanesulfonamide] is lower in “OX2R agonist activity (3 μM, %)” value: 103% for the first, 95% for the second.

First: CCS(=O)(=O)N[C@@H]1[C@H](Cc2cccc(-c3ccc(F)c(F)c3)c2F)N(C(=O)C2CCO2)CC1(F)F (stereo partly drawn) [Example 467, N-{(2S,3R)-4,4-difluoro-1-(oxetane-2-carbonyl)-2-[(2,3′,4′-trifluoro[1,1′-biphenyl]-3-yl)methyl]pyrrolidin-3-yl}ethanesulfonamide]
Second: CCS(=O)(=O)N[C@@H]1[C@H](Cc2cccc(-c3ccc(F)c(C)c3)c2F)N(C(=O)C2CCO2)CC1(F)F (stereo partly drawn) [Example 476, N-[(2S,3R)-2-[(2,4′-difluoro-3′-methyl[1,1′-biphenyl]-3-yl)methyl]-4,4-difluoro-1-(oxetane-2-carbonyl)pyrrolidin-3-yl]ethanesulfonamide]
The “OX2R agonist activity (3 μM, %)” value of the first is higher: 105% for the first, 100% for the second.

Going from `CCS(=O)(=O)N[C@@H]1[C@H](Cc2cccc(-c3ccc(F)c(F)c3)c2F)N(C(=O)C2CCO2)CC1(F)F` (stereo partly drawn) [Example 468, N-{(2S,3R)-4,4-difluoro-1-(oxetane-2-carbonyl)-2-[(2,3′,4′-trifluoro[1,1′-biphenyl]-3-yl)methyl]pyrrolidin-3-yl}ethanesulfonamide] to `CCS(=O)(=O)N[C@@H]1[C@H](Cc2cccc(-c3cc(F)c(F)c(F)c3)c2F)N(C(=O)C2CCO2)CC1(F)F` (stereo partly drawn) [Example 473, N-{(2S,3R)-4,4-difluoro-1-(oxetane-2-carbonyl)-2-[(2,3′,4′,5′-tetrafluoro[1,1′-biphenyl]-3-yl)methyl]pyrrolidin-3-yl}ethanesulfonamide], the “OX2R agonist activity (3 μM, %)” value falls from 102% to 97%.

Compared with `CCS(=O)(=O)N[C@@H]1[C@H](Cc2cccc(-c3cc(F)c(F)cc3F)c2F)N(C(=O)C2CCO2)CC1(F)F` (stereo partly drawn) [Example 469, N-{(2S,3R)-4,4-difluroo-1-(oxetane-2-carbonyl)-2-[(2,2′,4′5′-tetrafluoro[1,1′-biphenyl]-3-yl)methyl]pyrrolidin-3-yl}ethanesulfonamide], `CCS(=O)(=O)N[C@@H]1[C@H](Cc2cccc(-c3cc(F)c(F)c(F)c3)c2F)N(C(=O)C2CCO2)CC1(F)F` (stereo partly drawn) [Example 475, N-{(2S,3R)-4,4-difluoro-1-(oxetane-2-carbonyl)-2-[(2,3′,4′,5′-tetrafluoro[1,1′-biphenyl]-3-yl)methyl]pyrrolidin-3-yl}ethanesulfonamide] is higher in “OX2R agonist activity (3 μM, %)” value: 91% for the first, 100% for the second.

Compared with `CCS(=O)(=O)N[C@@H]1[C@H](Cc2cccc(-c3ccc(F)c(F)c3F)c2F)N(C(=O)C2CCO2)CC1(F)F` (stereo partly drawn) [Example 471, N-{(2S,3R)-4,4-difluoro-1-(oxetane-2-carbonyl)-2-[(2,2′,3′,4′-tetrafluoro[1,1′-biphenyl]-3-yl)methyl]pyrrolidin-3-yl}ethanesulfonamide], `CCS(=O)(=O)N[C@@H]1[C@H](Cc2cccc(-c3ccc(F)c(C)c3F)c2F)N(C(=O)C2CCO2)CC1(F)F` (stereo partly drawn) [Example 474, N-{(2S,3R)-4,4-difluoro-1-(oxetane-2-carbonyl)-2-[(2,2′,4′-trifluoro-3′-methyl[1,1′-biphenyl]-3-yl)methyl]pyrroldiin-3-yl}ethanesulfonamide] is higher in “OX2R agonist activity (3 μM, %)” value: 94% for the first, 96% for the second.

Going from `CCS(=O)(=O)N[C@@H]1[C@H](Cc2cccc(-c3cc(F)c(F)cc3F)c2F)N(C(=O)C2CCO2)CC1(F)F` (stereo partly drawn) [Example 477, N-{(2S,3R)-4,4-difluoro-1-(oxetane-2-carbonyl)-2-[(2,2′,4′,5′-tetrafluoro[1,1′-biphenyl]-3-yl)methyl]pyrrolidin-3-yl}ethanesulfonamide] to `CCS(=O)(=O)N[C@@H]1[C@H](Cc2cccc(-c3ccc(F)c(C)c3F)c2F)N(C(=O)C2CCO2)CC1(F)F` (stereo partly drawn) [Example 478, N-{(2S,3R)-4,4-difluoro-1-(oxetane-2-carbonyl)-2-[(2,2′,4′-trifluoro-3′-methyl[1,1′-biphenyl]-3-yl)methyl]pyrroldiin-3-yl}ethanesulfonamide], the “OX2R agonist activity (3 μM, %)” value rises from 96% to 103%.
